Experimental data: ChEMBL document CHEMBL1133249, “Combined tachykinin receptor antagonist: synthesis and stereochemical structure-activity relationships of novel morpholine analogues” (Bioorg Med Chem Lett, 2000)
pIC50: −log10 of the molar value.

Assays:
Substance-P receptor = Substance-P receptor (Cavia porcellus, UniProt P30547); test: The compound was evaluated in vitro for its ability to displace [3H]SP from Tachykinin receptor 1 of male guinea pig lung membrane; assay type: tissue-based
Neuromedin-K receptor = target: T1, Neuromedin-K receptor (Cavia porcellus, UniProt P30098); test: The compound was evaluated in vitro for its ability to displace [3H]SP from Tachykinin receptor 3 of male guinea pig lung membrane; assay type: tissue-based
T1 sequence (P30098 whole entry): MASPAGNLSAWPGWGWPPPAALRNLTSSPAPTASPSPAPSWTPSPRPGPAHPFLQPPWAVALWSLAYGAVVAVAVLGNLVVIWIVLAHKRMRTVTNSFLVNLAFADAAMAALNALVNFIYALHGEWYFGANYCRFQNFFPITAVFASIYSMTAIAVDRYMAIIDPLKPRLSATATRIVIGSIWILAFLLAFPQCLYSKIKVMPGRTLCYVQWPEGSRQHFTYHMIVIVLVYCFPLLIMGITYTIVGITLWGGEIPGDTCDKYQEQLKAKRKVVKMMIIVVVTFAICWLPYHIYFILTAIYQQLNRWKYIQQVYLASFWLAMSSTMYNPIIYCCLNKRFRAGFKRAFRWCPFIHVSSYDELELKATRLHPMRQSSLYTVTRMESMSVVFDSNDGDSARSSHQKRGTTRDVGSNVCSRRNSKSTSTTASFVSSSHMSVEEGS

Substance-K receptor = target: T2, Substance-K receptor (Cavia porcellus, UniProt Q64077); test: The compound was evaluated in vitro for its ability to displace [3H]SP from Tachykinin receptor 2 of male guinea pig lung membrane; assay type: tissue-based
T2 sequence (Q64077 whole entry): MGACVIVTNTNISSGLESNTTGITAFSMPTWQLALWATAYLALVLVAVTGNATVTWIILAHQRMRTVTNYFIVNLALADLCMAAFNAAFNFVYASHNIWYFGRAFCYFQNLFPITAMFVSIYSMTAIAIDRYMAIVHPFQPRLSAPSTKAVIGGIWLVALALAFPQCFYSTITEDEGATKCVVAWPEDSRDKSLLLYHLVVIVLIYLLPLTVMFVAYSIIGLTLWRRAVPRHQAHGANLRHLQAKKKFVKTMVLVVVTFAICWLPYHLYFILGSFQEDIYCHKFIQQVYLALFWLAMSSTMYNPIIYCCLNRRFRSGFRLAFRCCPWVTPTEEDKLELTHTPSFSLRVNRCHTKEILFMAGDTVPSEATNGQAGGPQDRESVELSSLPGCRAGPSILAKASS

Cavia porcellus [1] = test: Inhibitory effect was evaluated after intravenous administration on bronchoconstriction induced by NKA receptor in guinea pigs; assay type: functional; settings: read-out: ID50 (the source's name)
Cavia porcellus [2] = test: Inhibitory effect of compound was evaluated after intravenous administration on SP-induced plasma protein extravasation, mediated by NK1 receptors in guinea pig airways; assay type: functional; settings: read-out: ID50 (the source's name)
Cavia porcellus [3] = test: Inhibitory effect was evaluated after intravenous administration on bronchoconstriction induced by NKB receptor in guinea pigs; assay type: functional; settings: read-out: ID50 (the source's name)

Substance-P receptor, sequence (P30547 whole entry): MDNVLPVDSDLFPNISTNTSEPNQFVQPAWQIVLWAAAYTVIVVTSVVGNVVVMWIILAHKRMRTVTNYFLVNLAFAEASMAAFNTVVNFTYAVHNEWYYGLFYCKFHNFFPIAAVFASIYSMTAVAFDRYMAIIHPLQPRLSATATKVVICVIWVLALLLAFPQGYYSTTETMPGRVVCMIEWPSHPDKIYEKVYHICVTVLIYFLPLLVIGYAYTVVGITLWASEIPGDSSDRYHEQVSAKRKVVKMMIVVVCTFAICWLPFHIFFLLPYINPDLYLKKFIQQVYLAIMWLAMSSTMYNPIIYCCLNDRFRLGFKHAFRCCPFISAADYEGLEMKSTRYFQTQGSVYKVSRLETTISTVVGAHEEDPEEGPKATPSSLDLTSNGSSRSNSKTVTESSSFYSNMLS

| pIC50 (Substance-P receptor) | pIC50 (Neuromedin-K receptor) | pIC50 (Substance-K receptor) | SMILES | ED50 (Cavia porcellus [1]) | ED50 (Cavia porcellus [2]) | ED50 (Cavia porcellus [3]) |
| --- | --- | --- | --- | --- | --- | --- |
| 6.66 | 7.96 | 7.23 | COc1cc(C(=O)N2CCO[C@](CCN3CCC4(CC3)c3ccccc3C[S@@+]4[O-])(c3ccc(Cl)c(Cl)c3)C2)cc(OC)c1OC | – | – | – |
| < 6.00 | 6.28 | < 6.00 | COc1cc(C(=O)N2CCO[C@@](CCN3CCC4(CC3)c3ccccc3C[S@+]4[O-])(c3ccc(Cl)c(Cl)c3)C2)cc(OC)c1OC | – | – | – |
| 7.68 | 9.14 | 8.51 | COc1cc(C(=O)N2CCO[C@](CCN3CCC4(CC3)c3ccccc3C[S@+]4[O-])(c3ccc(Cl)c(Cl)c3)C2)cc(OC)c1OC | – | – | – |
| 7.40 | 8.57 | 8.17 | COc1cc(C(=O)N2CCO[C@](CCN3CCC4(CC3)c3ccccc3C[C@@H]4O)(c3ccc(Cl)c(Cl)c3)C2)cc(OC)c1OC | – | – | – |
| < 6.00 | < 6.00 | < 6.00 | COc1cc(C(=O)N2CCO[C@@](CCN3CCC4(CC3)c3ccccc3C[C@@H]4O)(c3ccc(Cl)c(Cl)c3)C2)cc(OC)c1OC | – | – | – |
| 6.57 | 7.77 | 7.35 | COc1cc(C(=O)N2CCO[C@](CCN3CCC4(CC3)c3ccccc3C[C@H]4O)(c3ccc(Cl)c(Cl)c3)C2)cc(OC)c1OC | – | – | – |
| – | – | – | COc1cc(C(=O)N2CCOC(CCN3CCC4(CC3)c3ccccc3C[S+]4[O-])(c3ccc(Cl)c(Cl)c3)C2)cc(OC)c1OC.Cl (configuration not stated) | 0.04 mg/kg | 0.33 mg/kg | 0.063 mg/kg |
| < 6.00 | 6.18 | < 6.00 | COc1cc(C(=O)N2CCO[C@@](CCN3CCC4(CC3)c3ccccc3C[S@@+]4[O-])(c3ccc(Cl)c(Cl)c3)C2)cc(OC)c1OC (racemic) | – | – | – |
| < 6.00 | < 6.00 | < 6.00 | COc1cc(C(=O)N2CCO[C@@](CCN3CCC4(CC3)c3ccccc3C[C@H]4O)(c3ccc(Cl)c(Cl)c3)C2)cc(OC)c1OC (racemic) | – | – | – |
